Measurements taken from patent US8067458B2, “Alkoxyalkyl-substituted cyclic ketoenols” (Bayer Cropscience AG, priority 2006, dated 2011).
Several values for one entry are separate records, joined by “and”; a condition that tells them apart may be missing. Identical values can stand only once. Like-named read-outs stand apart in the source and are kept apart here.

Legend:
Spring wheat = format: in vivo; conditions: post-emergence
[1] = test system: caterpillars of the army worm (Spodoptera frugiperda); assay: Spodoptera frugiperda test (spray treatment); format: in vivo; conditions: 500 g/ha, maize leaf discs
Experimental: Solvent: 78 parts by weight of acetone • • 1.5 parts by weight of dimethylformamide Emulsifier: 0.5 part by weight of alkylaryl polyglycol ether A suitable preparation of active compound is prepared by mixing 1 part by weight of active compound with the stated amounts of solvent and emulsifier and diluting the concentrate with emulsifier-containing water to the desired concentration. Leaf discs of maize (Zea mays) are sprayed with a preparation of active compound at the desired concentration and after they have dried are populated with caterpillars of the army worm (Spodoptera frugiperda).

Spring barley = format: in vivo; conditions: post-emergence
Maize - Arsenal = assay: Greenhouse container trials with maize, safener 1 day prior to herbicide application, pre-emergence; format: in vivo; conditions: 28 days after application
Experimental: (§1) Seeds of monocotyledonous and dicotyledonous weed plants and crop plants are placed in sandy loam soil in wood fibre pots or in plastic pots and are covered with earth. The pots are easily fitted and then the soil surface is treated with the test compounds, formulated as wettable powders (WP) or liquids (EC) in various dosages, with a water application rate of 300 l/ha (converted). […] If the testing is also to look at whether safeners can improve the tolerance of the crop plants for test substances, the following options are used for the application of the safener: • seeds of the crop plants are dressed with the safener substance prior to sowing (the amount of safener is stated as a percentage, based on the seed weight) • crop plants are sprayed with the safener, with a defined application rate per hectare, prior to application of the test substances (typically 1 day before the test substances are applied) • the safener is applied together with the test substance in the form of a tank mix (the amount of safener is reported in g/ha or as a proportion relative to the herbicide). By comparing the effect of test substances on crop plants which have been treated with safener and without safener it is possible to assess the effect of the safener substance.

Maize - CECILIA = assay: as above; format: in vivo; conditions: 50 g a.i./ha, 28 days after application
Experimental: as §1

[2] = Determination of the log P values by HPLC on a reversed phase column (C18); format: physicochemical; conditions: 43° C., EEC Directive 79/831 Annex V.A8
Experimental: The log P values reported in the table were determined in accordance with EEC Directive 79/831 Annex V.A8 by means of HPLC (high performance liquid chromatography) on a reversed phase column (C18). Temperature: 43° C. […] Calibration was carried out with unbranched alkan-2-ones (having 3 to 16 carbon atoms) whose log P values are known (log P values determined on the basis of the retention times by means of linear interpolation between two successive alkanones).

[3] = Penetration of active compounds through enzymatically isolated cuticles of apple leaves; conditions: spray liquor on isolated cuticles; 20° C., 60% rh; average of 5 to 6 measurements
[4] = 28 days after application, 50 g a.i./ha
[5] = 28 days after application, 100 g a.i./ha
[6] = 28 days after application, 25 g a.i./ha
[7] = 25 g a.i./ha, 10 days after application
[8] = 50 g a.i./ha, 10 days after application
[9] = 10 days after application, 50 g a.i./ha
[10] = 10 days after application, 100 g a.i./ha
[11] = 10 days after application, 25 g a.i./ha
[12] = 10 days after application, 12.5 g a.i./ha

CCc1cc(C)cc(Br)c1C1=C(O)C(C)(COC)NC1=O (racemic) [I-a-6]
Spring wheat observed (%) (Spring wheat; [4]): 20% | Spring wheat observed (%) (Spring wheat; [5]): 30%

CCc1cc(Cl)cc(OC)c1C1=C(O)C(C)(COC)NC1=O (racemic) [I-a-10]
Spring wheat observed (%) (Spring wheat; 28 days after application, 12.5 g a.i./ha): 5% | Spring wheat observed (%) (Spring wheat; [6]): 15% | Spring wheat observed (%) (Spring wheat; [4]): 25%

COCC1(C)NC(=O)C(c2c(C)cc(C)cc2Cl)=C1O (racemic) [I-a-12]
activity (effect in %, caterpillars killed) [1]: ≥ 80%

CCc1cc(C)cc(C)c1C1=C(OC(=O)C(C)C)C(C)(COC)NC1=O (racemic) [I-b-4]
Spring barley observed (%) (Spring barley; [7]): 30% | Spring barley observed (%) (Spring barley; [8]): 40% | Spring barley observed (%) (Spring barley; [9]): 25% | Spring barley observed (%) (Spring barley; [10]): 65% | Spring wheat observed (%) (Spring wheat; 12.5 g a.i./ha, 10 days after application): 30% | Spring wheat observed (%) (Spring wheat; [7]): 50% | Spring wheat observed (%) (Spring wheat; [8]): 70% | Spring wheat observed (%) (Spring wheat; [11]): 10% | Spring wheat observed (%) (Spring wheat; [9]): 50% | Spring wheat observed (%) (Spring wheat; [10]): 75% | Spring wheat observed (%) (Spring wheat; [6]): 10% | Spring wheat observed (%) (Spring wheat; 28 days after application, 50 g a.i./ha, listed as Ex. I-b-4): 15% and 5% | Spring wheat observed (%) (Spring wheat; [5]): 30%

CCc1cc(C)cc(OC)c1C1=C(OC(=O)C(C)C)C(C)(COC)NC1=O (racemic) [I-b-9]
Spring barley observed (%) (Spring barley; [11]): 25% | Spring barley observed (%) (Spring barley; [9]): 75% | Spring barley observed (%) (Spring barley; [6]): 25% | Spring barley observed (%) (Spring barley; [4]): 70% | Spring wheat observed (%) (Spring wheat; [12]): 15% | Spring wheat observed (%) (Spring wheat; [11]): 60% | Spring wheat observed (%) (Spring wheat; [6]): 60% | Spring wheat observed (%) (Spring wheat; [4]): 85%

CCc1cc(Cl)cc(OC)c1C1=C(OC(=O)C(C)C)C(C)(COC)NC1=O (racemic) [I-b-10]
Maize - Arsenal observed (%) (Maize - Arsenal; 12.5 g a.i./ha): 5% | Maize - Arsenal observed (%) (Maize - Arsenal; 25 g a.i./ha): 15% | Maize - Arsenal observed (%) (Maize - Arsenal; 50 g a.i./ha): 25% | Maize - CECILIA observed (%) (Maize - CECILIA): 15%

CCc1cc(C)cc(C)c1C1=C(OC(=O)COC)C(C)(COC)NC1=O (racemic) [I-b-11]
Spring barley observed (%) (Spring barley; [12]): 10% | Spring barley observed (%) (Spring barley; [11]): 15% | Spring barley observed (%) (Spring barley; [9]): 50% | Spring barley observed (%) (Spring barley; [10]): 70% | Spring barley observed (%) (Spring barley; [4]): 25% | Spring barley observed (%) (Spring barley; [5]): 55% | Spring wheat observed (%) (Spring wheat; [11]): 10% | Spring wheat observed (%) (Spring wheat; [9]): 60% | Spring wheat observed (%) (Spring wheat; [6]): 10% | Spring wheat observed (%) (Spring wheat; [4]): 50%

CCc1cc(C)cc(C2CC2)c1CC(=O)NC(C)(COC)C(=O)OC (racemic) [II-20]
logP [2]: oil logP 3.13

COCC(C)(NC(=O)Cc1c(C2CC2)cc(C)cc1C1CC1)C(=O)OC (stereo not shown) [II-27]
logP [2]: logP 3.19

CCc1cc(C)cc(C)c1CC(=O)NC(C)(CCOC)C(=O)OC (stereo not shown) [II-28]
logP [2]: logP 3.19

COCCC(C)(NC(=O)Cc1c(C)cc(C)cc1C)C(=O)OC (stereo not shown) [II-29]
logP [2]: logP 2.86

CCc1cc(Cl)cc(OC)c1CC(=O)NC(C)(CCOC)C(=O)OC (stereo not shown) [II-33]
logP [2]: logP 3.21

CCOc1cc(Cl)cc(CC)c1CC(=O)NC(C)(CCOC)C(=O)OC (stereo not shown) [II-34]
logP [2]: logP 3.64

CCc1cc(C)cc(Br)c1CC(=O)NC(C)(CCOC)C(=O)OC (stereo not shown) [II-35]
logP [2]: logP 3.39

N.N.O=S(=O)(O)O [ammonium sulphate]
penetration through apple leaf cuticles (effect of additive, in words) [3]: significantly improves the penetration
